We go through 2 compounds from PMC10879537 (Nature Communications, 2024).

Values joined by “and” are separate entries in the source; they are usually repeats but may differ in a detail not shown here. Equal entries are not always repeated. Where two headings read alike, the source gives them in different places.

Series [1] relates to MERS-CoV pseudotyped virus. Description: microbe, parasite or virus in culture. The format is cell-based.
Series [2] deals with SARS-CoV-2 trVLP.
Series [3] concerns SADS-CoV strain CN/GDWT/2017. Nature of the series: cells. It counts as cell-based, swine acute diarrhoea syndrome coronavirus (SADS-CoV).
For series [4], the system named is SARS-CoV-2 live virus (SARS-CoV-2/WH-09/human/2020/CHN). Description: microbe, parasite or virus in culture. The format is cell-based.
Series [5] has as its system GX_P2V. Nature of the series: organism not typed. It counts as cell-based, Guangxi pangolin-CoV (GX_P2V).
For series [6], the system named is GX_P2V. Description: organism not typed. The format is cell-based, Guangxi pangolin-CoV (GX_P2V). This is another data set of the same source.
The next series concerns PEDV strain CV777. Description: microbe, parasite or virus in culture. It counts as cell-based, porcine epidemic diarrhea virus (PEDV).
Series [7] deals with SARS-CoV-2 pseudotyped virus. Description: microbe, parasite or virus in culture. It counts as cell-based.
Series [8] relates to SARS-CoV pseudotyped virus. Description: microbe, parasite or virus in culture. The format is cell-based. The conditions noted are these: read-out: EC50 against SARS-CoV pseudotyped virus.
Series [9] has as its system SARS-CoV-2 trVLP. It counts as cell-based.
Series [10] in a line: in vitro. The conditions noted are these: human, Caco-2.
The subject of series [11] is SARS-CoV-2 trVLP. Nature of the series: microbe, parasite or virus in culture. The conditions noted are these: Severe acute respiratory syndrome coronavirus 2, read-out: EC50 SARS-CoV-2 trVLP.
A short description of series [12]: in vitro. The conditions noted are these: African green monkey.
The nature of series [13]: in vitro. The conditions noted are these: human.
Where [14] appears, read: Vero C1008, 48 h, read-out: Percentage of Inhibition (%).

For the compound cycleanine, the EC50 in series [1] (read-out: EC50 against MERS-CoV pseudotyped virus) was 2.45 µM; in the series on SARS-CoV-2 trVLP [2] (read-out: EC50 SARS-CoV-2 trVLP) it was 1.53 µM; in [3] (read-out: EC50 against SADS-CoV) it was 2.77 µM; in series [4] (read-out: SARS-CoV-2 (Vero E6) EC50), 8.91 µM; in the series on GX_P2V [5] (read-out: EC50 against GX_P2V), 1.49 µM; in the series on PEDV strain CV777 (read-out: EC50 against PEDV), 0.34 µM. The EC50 was determined as 6.54 µM in series [7] (read-out: EC50 SARS-CoV-2pseudotypedvirus) and 3.2 µM in series [8]. Also, the “SI (SARS-CoV-2 trVLP, Caco 2-N)” value in the series with SARS-CoV-2 trVLP [2] is over 32.68. This compound also came in with a CC50 in the series on Huh 7 cells of over 12.5 µM. Besides, the “Percentage of Inhibition (%)” value in the series with GX_P2V [5] is 100%. Moreover, the “Time of addition of anti-GX_P2V activity, Entry” value in the series on GX_P2V [6] was 60.950 and 60.215 and 58.803. Besides, the “Time of addition of anti-GX_P2V activity, Full-time” value with GX_P2V [6] is 92.758 and 93.389 and 93.191. Further, the “Time of addition of anti-GX_P2V activity, Post-entry” value with GX_P2V [6] is 62.451 and 61.926 and 63.133. For the same compound, in the series on SARS-CoV-2 trVLP [9], the “Time of addition of anti-SARS-CoV-2 trVLPs activity, Entry” value was 37.174 and 37.913 and 46.924. Besides, the “Time of addition of anti-SARS-CoV-2 trVLPs activity, Full-time” value in the series with SARS-CoV-2 trVLP [9] was 60.248 and 61.546 and 62.312. Besides, the “Time of addition of anti-SARS-CoV-2 trVLPs activity, Post-entry” value in the series on SARS-CoV-2 trVLP [9] was 56.735 and 54.305 and 57.336.

With `COc1cc2c3cc1Oc1c(OC)c(OC)cc4c1[C@@H](Cc1ccc(O)c(c1)Oc1ccc(cc1)C[C@@H]3N(C)CC2)N(C)CC4` [Berbamine, berbamine], the 50% effective concentration (EC50) in series [1] (Middle East respiratory syndrome-related coronavirus, Huh-7, read-out: EC50 against MERS-CoV pseudotyped virus) came to 3.37 µM; in series [3] (Huh-7, read-out: EC50 SADS) it was 3.33 µM; in series [3] (Huh-7, read-out: EC50 against SADS-CoV), 5.84 µM; in [4] (Severe acute respiratory syndrome coronavirus 2, Vero C1008, read-out: SARS-CoV-2 (Vero E6) EC50) it was 19.9 µM; with GX_P2V [5] (Vero C1008, read-out: EC50 GX_P2V), 6.92 µM; in the series with PEDV strain CV777 (Porcine epidemic diarrhea virus, Huh-7, read-out: EC50 against PEDV) it was 0.5 µM. In addition, the EC50 in the series with SARS-CoV-2 trVLP [11] was 8.15 µM; in [7] (Severe acute respiratory syndrome coronavirus 2, 24 h, read-out: EC50 against SARS-CoV-2 pseudotyped virus), 1.87 µM; in series [8] (Severe acute respiratory syndrome coronavirus), 5.55 µM. The “SI (SARS-CoV-2 trVLP, Caco 2-N)” value in the series with SARS-CoV-2 trVLP [2] was over 6.13. The inhibition at 0.79588 µM in the series on GX_P2V [5] (setting [14]) was found to be 33.8%. Moreover, the inhibition at 1.09691 µM in the series on GX_P2V [5] (setting [14]) was found to be 96.4%. Besides, the inhibition at 1.39794 µM in the series on GX_P2V [5] (setting [14]) came out at 100%. For the same compound, the inhibition at 1.69897 µM in the series on GX_P2V [5] (setting [14]) was determined as 100%. Moreover, the “Time of addition of anti-GX_P2V activity, Entry” value with GX_P2V [6] was 53.007 and 53.569 and 52.218. The “Time of addition of anti-GX_P2V activity, Full-time” value in the series with GX_P2V [6] is 99.845 and 99.848 and 99.866. For the same compound, in the series with GX_P2V [6], the “Time of addition of anti-GX_P2V activity, Post-entry” value is 93.479 and 93.373 and 93.128. Moreover, the CC50 at 48 h in “in vitro [10]” is over 50 µM; in the series “in vitro [12]”, over 50 µM; in the series “in vitro [13]” it was over 25 µM. The compound also displayed a CC50 in the series “in vitro [13]” (CC50, cytotoxicity to Huh 7 cells (Fig. 4B, SADS-CoV panel)) of over 25 µM. Also, the “Time of addition of anti-SARS-CoV-2 trVLPs activity, Entry” value in the series with SARS-CoV-2 trVLP [9] is 49.832 and 46.966 and 50.173. Besides, the “Time of addition of anti-SARS-CoV-2 trVLPs activity, Full-time” value with SARS-CoV-2 trVLP [9] is 90.853 and 91.022 and 89.926. In addition, the “Time of addition of anti-SARS-CoV-2 trVLPs activity, Post-entry” value in the series on SARS-CoV-2 trVLP [9] is 85.087 and 83.404 and 83.155.

As usually defined, the EC50 is the concentration that produces a half-maximal response. As a reminder, the inhibition is how much of the control response was suppressed.
